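48-hour exposure; five concentrations; linearly interpolated endpoints. GI50 is the concentration that inhibits growth by half.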 Activity calls are given as the source filed them. Cut-off read from the data, not from the text of the source: active = GI50 up to about 1.1 µM and inactive = higher.
How the values were obtained:
Assay in all cases: DTP human tumour cell line panel, 48 h
A498 = system: A498
NCI-H23 = system: NCI-H23
IGROV-1 = system: IGROV-1
COLO 205 = system: COLO 205
SNB-75 = system: SNB-75
SK-MEL-28 = system: SK-MEL-28
SK-MEL-5 = system: SK-MEL-5
SF-268 = system: SF-268
UACC-257 = system: UACC-257
T47D = system: T47D
SNB-19 = system: SNB-19
SN12C = system: SN12C
U-251 = system: U-251
HT-29 = system: HT-29
KM12 = system: KM12
HOP-92 = system: HOP-92
EKVX = system: EKVX
MDA-N = system: MDA-N
RXF 393 = system: RXF 393
M14 = system: M14
OVCAR-4 = system: OVCAR-4
Hs-578T = system: Hs-578T
K562 = system: K562
LOX IMVI = system: LOX IMVI
SF-295 = system: SF-295
MDA-MB-435 = system: MDA-MB-435
SK-MEL-2 = system: SK-MEL-2
SR = system: SR
UO-31 = system: UO-31
A549 = system: A549
SF-539 = system: SF-539
Malme-3M = system: Malme-3M
ACHN = system: ACHN
OVCAR-3 = system: OVCAR-3
786-0 = system: 786-0
NCI/ADR-RES = system: NCI/ADR-RES
MDA-MB-231 = system: MDA-MB-231
MOLT-4 = system: MOLT-4
HCT-15 = system: HCT-15
HOP-62 = system: HOP-62
NCI-H522 = system: NCI-H522
UACC-62 = system: UACC-62
OVCAR-5 = system: OVCAR-5
SK-OV-3 = system: SK-OV-3
OVCAR-8 = system: OVCAR-8
NCI-H460 = system: NCI-H460
NCI-H226 = system: NCI-H226
PC-3 = system: PC-3
RPMI-8226 = system: RPMI-8226
TK-10 = system: TK-10
CCRF-CEM = system: CCRF-CEM
HCC 2998 = system: HCC 2998
DU-145 = system: DU-145
HL-60 = system: HL-60
MCF7 = system: MCF7
CAKI-1 = system: CAKI-1
SW-620 = system: SW-620

O=C1Cc2c([nH]c3ccc(Br)cc23)-c2ccccc2N1 [KENPAULLONE]
GI50 (A498): > 100 µM (inactive) | GI50 (NCI-H23): > 100 µM (inactive) | GI50 (IGROV-1): 9.75 µM (inactive) | GI50 (COLO 205): > 100 µM (inactive) | GI50 (SNB-75): > 50.8 µM (inactive) | GI50 (SK-MEL-28): > 62.4 µM (inactive) | GI50 (SK-MEL-5): > 28.4 µM (inactive) | GI50 (SF-268): > 75.5 µM (inactive) | GI50 (UACC-257): > 100 µM (inactive) | GI50 (T47D): > 100 µM (inactive) | GI50 (SNB-19): > 78.5 µM (inactive) | GI50 (SN12C): > 100 µM (inactive) | GI50 (U-251): > 51.5 µM (inactive) | GI50 (HT-29): 5.19 µM (inactive) | GI50 (KM12): 2.73 µM (inactive) | GI50 (HOP-92): > 100 µM (inactive) | GI50 (EKVX): > 100 µM (inactive) | GI50 (MDA-N): > 100 µM (inactive) | GI50 (RXF 393): 5.11 µM (inactive) | GI50 (M14): > 100 µM (inactive) | GI50 (OVCAR-4): > 100 µM (inactive) | GI50 (Hs-578T): > 100 µM (inactive) | GI50 (K562): > 54.8 µM (inactive) | GI50 (LOX IMVI): 5.35 µM (inactive) | GI50 (SF-295): > 100 µM (inactive) | GI50 (MDA-MB-435): > 100 µM (inactive) | GI50 (SK-MEL-2): > 100 µM (inactive) | GI50 (SR): 4.21 µM (inactive) | GI50 (UO-31): > 100 µM (inactive) | GI50 (A549): > 90.2 µM (inactive) | GI50 (SF-539): 2.43 µM (inactive) | GI50 (Malme-3M): > 100 µM (inactive) | GI50 (ACHN): > 100 µM (inactive) | GI50 (OVCAR-3): 3.95 µM (inactive) | GI50 (786-0): > 46.3 µM (inactive) | GI50 (NCI/ADR-RES): > 100 µM (inactive) | GI50 (MDA-MB-231): > 100 µM (inactive) | GI50 (MOLT-4): 13.5 µM (inactive) | GI50 (HCT-15): 4.46 µM | GI50 (HOP-62): 65.8 µM (inactive) | GI50 (NCI-H522): > 100 µM (inactive) | GI50 (UACC-62): > 100 µM (inactive) | GI50 (OVCAR-5): > 100 µM (inactive) | GI50 (SK-OV-3): > 100 µM (inactive) | GI50 (OVCAR-8): > 100 µM (inactive) | GI50 (NCI-H460): > 100 µM (inactive) | GI50 (NCI-H226): > 100 µM (inactive) | GI50 (PC-3): > 100 µM (inactive) | GI50 (RPMI-8226): > 20.5 µM (inactive) | GI50 (TK-10): > 100 µM (inactive) | GI50 (CCRF-CEM): 5.55 µM (inactive) | GI50 (HCC 2998): > 100 µM (inactive) | GI50 (DU-145): > 100 µM (inactive) | GI50 (HL-60): 5.21 µM (inactive)

C=CCc1c(O)c2nsnc2c2nsnc12
GI50 (NCI-H23): > 10 µM (inactive) | GI50 (IGROV-1): > 10 µM (inactive) | GI50 (COLO 205): > 10 µM (inactive) | GI50 (SNB-75): > 10 µM (inactive) | GI50 (SK-MEL-28): > 10 µM (inactive) | GI50 (SK-MEL-5): > 10 µM (inactive) | GI50 (SF-268): > 10 µM (inactive) | GI50 (UACC-257): > 10 µM (inactive) | GI50 (T47D): > 10 µM (inactive) | GI50 (MCF7): > 10 µM (inactive) | GI50 (SN12C): > 10 µM (inactive) | GI50 (HT-29): > 10 µM (inactive) | GI50 (KM12): > 10 µM (inactive) | GI50 (EKVX): > 10 µM (inactive) | GI50 (MDA-N): > 10 µM (inactive) | GI50 (RXF 393): > 10 µM (inactive) | GI50 (CAKI-1): > 10 µM (inactive) | GI50 (M14): > 10 µM (inactive) | GI50 (K562): > 10 µM (inactive) | GI50 (LOX IMVI): > 10 µM (inactive) | GI50 (SF-295): > 10 µM (inactive) | GI50 (SW-620): > 10 µM (inactive) | GI50 (SR): > 10 µM (inactive) | GI50 (A549): > 10 µM (inactive) | GI50 (Malme-3M): > 10 µM (inactive) | GI50 (786-0): > 10 µM (inactive) | GI50 (MDA-MB-231): > 10 µM (inactive) | GI50 (MOLT-4): > 10 µM (inactive) | GI50 (HCT-15): > 10 µM | GI50 (HOP-62): > 10 µM (inactive) | GI50 (UACC-62): > 10 µM (inactive) | GI50 (SK-OV-3): > 10 µM (inactive) | GI50 (OVCAR-8): > 10 µM (inactive) | GI50 (PC-3): > 10 µM (inactive) | GI50 (RPMI-8226): > 10 µM (inactive) | GI50 (TK-10): > 10 µM (inactive) | GI50 (CCRF-CEM): > 10 µM (inactive) | GI50 (HCC 2998): > 10 µM (inactive) | GI50 (DU-145): > 10 µM (inactive) | GI50 (HL-60): > 10 µM (inactive)

From ChEMBL document CHEMBL1201862, “PubChem BioAssay data set” (2004)
